Drawing on paper PMC12040169 (PLOS Biology, 2025), this text covers % viability and viability for 62 compounds.

Data set [1] concerns HeLa. Conditions: bulk resorufin, single well, 28.5 h, 10 µM, Bulk resorufin fluorescence.
Data set [2] can be described thus: in vitro. The note with it: human, hela cells, % viability.

Where “and” joins values, the source holds several entries; their conditions need not be identical. Equal entries are not always repeated.

Regarding `CCCC(=O)NCc1ccc(OC2CCNCC2)cc1` [CBK024489T], the % viability in data set [1] turned out to be 112%. In addition, the viability at 28.5 h, 10 µM in data set [2] is 95.6%.
The like results for `CCCC(=O)Nc1cc2ccccc2c(N2CCNCC2)n1` [CBK024608T] were, in that order, 104% and 102%.
The like results for `CC(C)(C)c1nc(CN2CCOCC2)ccc1O` [CBK026614C] were, in that order, 111% and 112%.
The like results for `CC(C(=O)Nc1cncc(OC2CCNCC2)n1)c1ccccc1` (stereo not shown) [CBK026733T] were, in that order, 110% and 99.2%.
`Cc1cc(C(NC(C)(C)C)C(=O)O)cc(C)c1O` (stereo not shown) [CBK027143]: the % viability in data set [1] stood at 90.9%. Also, the viability at 28.5 h, 10 µM in data set [2] was 86.6%.
The like results for `COC(=O)c1ccc(-c2nc3nnc(C)n3[nH]2)cc1` [CBK027508] were, in that order, 87.7% and 103%.
As to `CSc1ccc(CN2CCN(Cc3ccc(Br)cc3)CC2)cc1` [CBK027856], the % viability in data set [1] amounted to 96.4%. Moreover, the viability at 28.5 h, 10 µM in data set [2] (bulk resorufin, single well) is 79.2%.
As for `CC(C)[C@@H](CO)Nc1nccnc1-c1cccc(C(=O)O)c1` [CBK036665], in data set [1], the % viability came out at 93%. In addition, in data set [2], the viability at 28.5 h, 10 µM worked out at 85.6%.
The like results for `Cc1cc(-c2nccnc2NCCCN2CCCC2=O)cc(C)c1O` [CBK037632] were, in that order, 98% and 94.1%.
`Cc1nn(C)c(N2CCNCC2)c1NC(=O)C1CCC1` [CBK045923T]: in data set [1], the % viability turned out to be 96.2%. The viability at 28.5 h, 10 µM in data set [2] came to 91.8%.
For `CCCC(=O)Nc1c(C)nn(C)c1N1CCNCC1` [CBK045924T], in data set [1], the % viability came out at 102%. In addition, in data set [2], the viability at 28.5 h, 10 µM was found to be 87.2%.
The like results for `CN1CCN(S(=O)(=O)c2cccc3cccnc23)CC1` [CBK051241] were, in that order, 93.2% and 106%.
The like results for `Nc1ccc2cc(-c3ccccc3)cnc2n1` [CBK061881] were, in that order, 94.9% and 81.7%.
The like results for `Cc1cc(CNS(=O)(=O)c2sc3ccc(Cl)cc3c2C)no1` [CBK062277] were, in that order, 92.3% and 109%.
For `NC(=O)CSc1nnc(-c2ccc(Cl)cc2)o1` [CBK068597], the % viability in data set [1] turned out to be 89.3%. In addition, in data set [2], the viability at 28.5 h, 10 µM turned out to be 105%.
As to `CCOC(=O)C1=C(C)NC(=O)NC1c1ccc(Cl)cc1Cl` (stereo not shown) [CBK072057], the % viability in data set [1] came to 91%. Besides, the viability at 28.5 h, 10 µM in data set [2] is 93.2%.
The like results for `CCCOc1cccc(C(=O)Nc2cccc(-c3nc4ncccc4o3)c2C)c1` [CBK072326] were, in that order, 106% and 97.9%.
For the compound `CC(C)Nc1nc(-c2cccnc2)nc2ccccc12` [CBK073006], the % viability in data set [1] is 94.6% and 102%. Also, in data set [2], the viability at 28.5 h, 10 µM stood at 91.1%.
Take `O=C(CSc1nc2ccccc2[nH]1)Nc1ccccc1` [CBK073089]: the % viability in data set [1] is 91.6%. Moreover, in data set [2], the viability at 28.5 h, 10 µM is 110%.
The like results for `O=S(=O)(Nc1ncc(Br)c2cccnc12)c1ccc(-c2ccccc2)cc1` [CBK073885] were, in that order, 110% and 98.8%.
The like results for `COc1cc(CNCc2cccnc2)cc(Br)c1OCc1ccc(Cl)cc1` [CBK074596C] were, in that order, 95.5% and 107%.
The like results for `O=C(O)CCCC(=O)N1CCN(Cc2ccc3c(c2)OCO3)CC1` [CBK074752] were, in that order, 80.8% and 99.3%.
As for `Nc1nc2cccnc2cc1-c1cccc(OCc2ccccc2)c1` [CBK081206], the % viability in data set [1] stood at 105%. The viability at 28.5 h, 10 µM in data set [2] was determined as 99.2%.
The like results for `N#CCCCN1CCN(c2nccnc2OC2CCCCC2)CC1` [CBK082841T] were, in that order, 107% and 87.4%.
The like results for `CCC1CCCCN1C(=O)c1ccc(C(=O)NC)cc1` (stereo not shown) [CBK083371] were, in that order, 103% and 95.6%.
The like results for `COc1ccc(CN2CCCN(c3nccc(OCCN4CCOCC4)n3)CC2)cc1` [CBK083932] were, in that order, 108% and 104%.
For the compound `O=C1CCC(=O)N1CCOc1nccnc1OC1CCN(Cc2cccnc2)CC1` [CBK084339], in data set [1], the % viability was determined as 89.7%. The viability at 28.5 h, 10 µM in data set [2] came to 107%.
The like results for `Clc1ccc(CN2CCC(Oc3cncc(OCC4COc5ccccc5O4)n3)C2)cc1Cl` (stereo not shown) [CBK084361] were, in that order, 90.5% and 107%.
The like results for `c1cncc(COc2cncc(OC3CCN(CCc4c[nH]c5ccccc45)C3)n2)c1` (stereo not shown) [CBK084471] were, in that order, 113% and 111%.
The like results for `Cc1onc(-c2ccccc2)c1C(=O)NCCNC(=O)c1c(-c2ccccc2)noc1C` [CBK085092] were, in that order, 108% and 106%.
On to `CS(=O)(=O)Nc1cc2ccccc2c(-c2ccc(S(C)(=O)=O)cc2)n1` [CBK085756], for which the % viability in data set [1] worked out at 107%. For the same compound, the viability at 28.5 h, 10 µM in data set [2] stood at 95.6%.
The like results for `CC(C)NC(=O)n1nccc1-c1cc(-c2ccccc2)no1` [CBK086581] were, in that order, 82.6% and 102%.
The like results for `CC(=O)c1sc(NC(=O)c2ccc(Cl)cc2)nc1C` [CBK087686] were, in that order, 88.4% and 86.7%.
The like results for `Nc1nn2c(c1Cc1c(Cl)cccc1Cl)OCCCC2` [CBK089335] were, in that order, 86.2% and 91.8%.
In the case of `CC(C)Nc1cc(Sc2ccc(Cl)c(Cl)c2)ncn1` [CBK089500], the % viability in data set [1] was found to be 83.3%. Moreover, the viability at 28.5 h, 10 µM in data set [2] turned out to be 90.8%.
As to `COc1ccc2[nH]cc(CC(=O)N3CCC(C#N)(c4ccccc4)CC3)c2c1` [CBK091403], the % viability in data set [1] came to 105%. For the same compound, in data set [2] (bulk resorufin, single well), the viability at 28.5 h, 10 µM was found to be 96.6%.
In the case of `O=C(O)c1cccc(Sc2ncccc2C(F)(F)F)c1` [CBK093589], in data set [1], the % viability was 108%. For the same compound, the viability at 28.5 h, 10 µM in data set [2] turned out to be 103%.
The like results for `FC(F)(F)c1ccc(Sc2ccccn2)nc1` [CBK093785] were, in that order, 111% and 100%.
On to `Cc1ccc(S(=O)(=O)N2CCN(c3ccc(Cl)c(Cl)c3)CC2)c(C)c1` [CBK099298], for which the % viability in data set [1] was determined as 118%. Also, the viability at 28.5 h, 10 µM in data set [2] turned out to be 111%.
The like results for `CCOC(=O)CSc1nc2ccccc2nc1NC(C)C` [CBK107166] were, in that order, 111% and 101%.
The like results for `O=C(NCCN1CCCC1)c1cc2cc(F)ccc2[nH]1` [CBK107278] were, in that order, 105% and 106%.
The like results for `Cc1cc(-c2cncc(NCCc3c[nH]c4ccccc34)n2)cc(C)c1O` [CBK107896] were, in that order, 83% and 101%.
`FC(F)(F)c1cccc(-c2cnn(-c3ccncc3)n2)c1` [CBK112668]: the % viability in data set [1] turned out to be 93.6%. The viability at 28.5 h, 10 µM in data set [2] worked out at 102%.
The like results for `NCCCOc1nc2ccccc2nc1C(F)(F)F` [CBK115295] were, in that order, 109% and 96.8%.
For `Fc1ccc(COc2cc(N3CCCC3)ncn2)cc1` [CBK115675], the % viability in data set [1] amounted to 96.4%. The viability at 28.5 h, 10 µM in data set [2] stood at 109%.
With `O=C(O)C1Cc2c([nH]c3ccccc23)C(c2ccc(Cl)cc2Cl)N1` (stereo not shown) [CBK115930], the % viability in data set [1] came to 96.2%. The viability at 28.5 h, 10 µM in data set [2] came to 88.5%.
The like results for `O=C(O)CCc1ccc(-c2cccs2)n1-c1cc(Cl)ccc1O` [CBK131890] were, in that order, 106% and 104%.
The like results for `N#Cc1cccc(-c2ccc3c(c2)COC(C2CCN(C(=O)OCc4ccccc4)CC2)O3)c1` (stereo not shown) [CBK144640] were, in that order, 93% and 101%.
The like results for `COc1cccc2sc(NC(=O)c3ccc4c(c3)OCCO4)nc12` [CBK149285] were, in that order, 92.1% and 99.1%.
`CCN(Cc1ccccc1)C(=O)NCc1cc(C)on1` [CBK155211]: the % viability in data set [1] amounted to 92.6%. Moreover, the viability at 28.5 h, 10 µM in data set [2] is 106%.
The like results for `CCN(Cc1ccccc1)C(=O)NCc1cccc(C(F)(F)F)c1` [CBK155216] were, in that order, 96.1% and 110%.
The like results for `N#CCCN(C(=O)NC(c1ccccc1)c1ccccc1)C1CCCCC1` [CBK156354] were, in that order, 104% and 98.7%.
The like results for `O=C(O)CCCNc1ccc(S(=O)(=O)N2CCCCC2)cc1` [CBK261001] were, in that order, 90.5% and 96.7%.
On to `O=C(O)c1ccc(CN(c2ccccc2)S(=O)(=O)c2ccccc2)cc1` [CBK262406], for which, in data set [1], the % viability came out at 82.8%. Besides, the viability at 28.5 h, 10 µM in data set [2] was determined as 93.3%.
Consider `COc1ccc(-c2cc(C3CC3)nc(SCC(=O)O)c2C#N)cc1` [CBK262690], for which, in data set [1], the % viability is 90.1% and 95%. For the same compound, the viability at 28.5 h, 10 µM in data set [2] is 91.3%.
On to `CCn1cc(C(=O)NN)c(=O)c2cc(F)c(N3CCOCC3)cc21` [CBK263050], for which the % viability in data set [1] came out at 107%. In addition, in data set [2], the viability at 28.5 h, 10 µM is 99.9%.
The like results for `Cc1cc2c(cc1C)NC(CC(=O)Nc1ccc(Cl)cc1)C(=O)N2` (stereo not shown) [CBK263245] were, in that order, 90.5% and 83.4%.
The like results for `O=C(CN1C(=O)C2CCCCC2C1=O)Nc1ccccc1C(=O)O` (stereo not shown) [CBK264130] were, in that order, 108% and 91.5%.
The like results for `COc1ccccc1CC(=O)Nc1ccc(O)cc1C(=O)O` [CBK264305] were, in that order, 91.2% and 105%.
With `O=C(CC1Nc2ccccc2NC1=O)Nc1ccccc1` (stereo not shown) [CBK265365], the % viability in data set [1] was found to be 103%. In data set [2], the viability at 28.5 h, 10 µM was found to be 99.8%.
On to `CC1CCc2c(sc3ncnc(SCC(=O)N4CCOCC4)c23)C1` (stereo not shown) [CBK266192], for which the % viability in data set [1] is 111%. Further, the viability at 28.5 h, 10 µM in data set [2] was 105%.
Turning to `COc1ccc(NC(=O)Nc2ccncc2)c(OC)c1` [CBK266973], the % viability in data set [1] was found to be 93.8%. Moreover, the viability at 28.5 h, 10 µM in data set [2] turned out to be 95.5%.

As a reminder, the viability is a read-out of living cells in per cent, often relative to untreated cells.
